Among the test systems are A549 NSCLC; SF-295 CNS; NCI-H23 lung; KM12 colon; SK-MEL-2 melanoma; RPMI-8226 leukemia; ACHN renal; LOX IMVI melanoma; UACC-257 melanoma; HOP-62 NSCLC.
Common to all, as to assay: NCI-60 cell line screen, 48 h

7 compounds from PubChem BioAssay (NCI) can be followed below.

The structures appear in SMILES notation.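 Growth conditions: 96-well plates. Treatment: test compound, 48 hours, 5 concentrations. Analysis: linear interpolation between bracketing concentrations; unreached endpoints set to highest concentration. The concentration for 50% growth inhibition is given as GI50. TGI: total growth inhibition.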 Some results are limits rather than exact numbers.

As for `O=C(CC1(O)C(=O)Nc2c(Cl)cc(Cl)cc21)c1ccc2ccccc2c1` (stereo not given), the TGI with A549 NSCLC is 18.2 µM; in the test with SF-295 CNS it was 21.3 µM; in the test with NCI-H23 lung it was 22.3 µM; in the test on KM12 colon, 18.8 µM; with SK-MEL-2 melanoma, 16.3 µM; in the test with RPMI-8226 leukemia, 29.8 µM. Further, the TGI was 28.7 µM with ACHN renal, 24.3 µM in the test with LOX IMVI melanoma, 27.1 µM in the test on UACC-257 melanoma and 20.8 µM in the test on HOP-62 NSCLC.

`Cc1cc(C)nc(SC2=C(Nc3cccc(Cl)c3)C(=O)N(Cc3ccccc3)C2=O)n1`: the GI50 with A549 NSCLC, with SF-295 CNS, with NCI-H23 lung, in the test on KM12 colon, in the test on SK-MEL-2 melanoma and with RPMI-8226 leukemia was greater than 170 µM in each case. Besides, the GI50 was greater than 170 µM in the test with ACHN renal, greater than 170 µM with LOX IMVI melanoma, greater than 170 µM in the test with UACC-257 melanoma and 42.3 µM with HOP-62 NSCLC. The TGI in the test with A549 NSCLC, with SF-295 CNS, with NCI-H23 lung, with KM12 colon, in the test with SK-MEL-2 melanoma and in the test with RPMI-8226 leukemia was greater than 170 µM in each case. Also, the TGI in the test on ACHN renal, in the test on LOX IMVI melanoma, in the test with UACC-257 melanoma and in the test on HOP-62 NSCLC was greater than 170 µM throughout.

Regarding `CC1(C)C2CCC13C(=O)C1OC3(C2)C2C(=O)c3c(O)ccc(O)c3C(=O)C12` (stereo not given), the GI50 was 46.6 µM with A549 NSCLC; 25.2 µM in the test on SF-295 CNS; 16.4 µM with NCI-H23 lung; greater than 50.4 µM in the test on KM12 colon; 26.1 µM with SK-MEL-2 melanoma; 1.27 µM in the test with RPMI-8226 leukemia. For the same compound, the GI50 in the test on ACHN renal was 41 µM; in the test with LOX IMVI melanoma, 32.2 µM; in the test with UACC-257 melanoma it was 32.7 µM; in the test with HOP-62 NSCLC, 54.5 µM. Moreover, the TGI in the test with A549 NSCLC is greater than 100 µM; with SF-295 CNS, greater than 100 µM; in the test on NCI-H23 lung, 37.5 µM; in the test with KM12 colon, greater than 100 µM; in the test on SK-MEL-2 melanoma, greater than 100 µM; in the test with RPMI-8226 leukemia, 6.1 µM. Moreover, the TGI with ACHN renal was greater than 100 µM; in the test with LOX IMVI melanoma it was greater than 100 µM; with UACC-257 melanoma, greater than 66.7 µM; with HOP-62 NSCLC it was greater than 100 µM.

In the case of `CC12CC3CC(C)(C1)CC(N=[N+]=[N-])(C3)C2`, the TGI in the test on A549 NSCLC, in the test with SF-295 CNS, in the test with NCI-H23 lung, with KM12 colon, with SK-MEL-2 melanoma and in the test on RPMI-8226 leukemia was greater than 100 µM each time. Further, the TGI with ACHN renal, in the test on LOX IMVI melanoma, in the test on UACC-257 melanoma and in the test on HOP-62 NSCLC was greater than 100 µM each time.

Take `Cc1ccc(S(=O)(=O)N/N=C(\C(=O)Nc2cccc([N+](=O)[O-])c2)c2nc3ccc([N+](=O)[O-])cc3[nH]c2=O)cc1`: the TGI in the test on A549 NSCLC, in the test on SF-295 CNS, in the test with NCI-H23 lung, in the test with KM12 colon, in the test on SK-MEL-2 melanoma and in the test with RPMI-8226 leukemia was greater than 100 µM in each case. For the same compound, the TGI in the test with ACHN renal, in the test with LOX IMVI melanoma, in the test with UACC-257 melanoma and in the test with HOP-62 NSCLC was greater than 100 µM each time.

As to `O=C(CC(=O)C(F)(F)F)c1csc2ccccc12`, the TGI with A549 NSCLC is greater than 100 µM; with SF-295 CNS, 37 µM; in the test with NCI-H23 lung, greater than 100 µM; in the test on KM12 colon, greater than 100 µM; in the test on SK-MEL-2 melanoma it was 53.7 µM; in the test on RPMI-8226 leukemia, 91.6 µM. Moreover, the TGI with ACHN renal is greater than 100 µM; in the test with LOX IMVI melanoma, greater than 100 µM; in the test with UACC-257 melanoma, greater than 100 µM; in the test with HOP-62 NSCLC it was 81.1 µM.

Consider `Cc1ccc(S(=O)(=O)n2cc(C(=O)C(=O)Nc3ccncc3)c3ccccc32)cc1`, for which the GI50 in the test with A549 NSCLC is 16.5 µM; in the test on SF-295 CNS, 1.67 µM; with NCI-H23 lung, 0.556 µM; with KM12 colon, 0.595 µM; in the test with SK-MEL-2 melanoma it was 5.76 µM; in the test with RPMI-8226 leukemia it was 1.45 µM. In addition, the GI50 with ACHN renal was 7.82 µM; in the test on LOX IMVI melanoma, 1.04 µM; in the test on UACC-257 melanoma, 9.03 µM; in the test on HOP-62 NSCLC, 4.43 µM. The TGI was greater than 100 µM in the test on A549 NSCLC; 9.57 µM in the test on SF-295 CNS; greater than 60.7 µM in the test on NCI-H23 lung; greater than 84.6 µM in the test with KM12 colon; greater than 71.4 µM in the test with SK-MEL-2 melanoma; greater than 100 µM in the test with RPMI-8226 leukemia. Also, the TGI is greater than 100 µM in the test on ACHN renal, greater than 100 µM in the test on LOX IMVI melanoma, 98.1 µM in the test with UACC-257 melanoma and greater than 100 µM in the test with HOP-62 NSCLC.
